For 4 molecules, IC50 and EC50 results are on record in patent US20200377477A1, “DEGRADERS OF EGFR AND METHODS OF USE THEREOF” (DANA-FARBER CANCER INSTITUTE, INC., priority 2018, published 2020).

The pIC50 is −log10 of the IC50, conventionally taken in molar units.

The target in assay [1] is T1, recombinant EGFR T790M/L858R kinase (Homo sapiens, UniProt P00533, L858R/T790M).
T1 construct: Constructs spanning residues 696-1022 of the human EGFR; GST (cleaved yes); made in house; host or cells: Sf9 insect cells
T1 sequence (P00533 696-1022 T790M/L858R): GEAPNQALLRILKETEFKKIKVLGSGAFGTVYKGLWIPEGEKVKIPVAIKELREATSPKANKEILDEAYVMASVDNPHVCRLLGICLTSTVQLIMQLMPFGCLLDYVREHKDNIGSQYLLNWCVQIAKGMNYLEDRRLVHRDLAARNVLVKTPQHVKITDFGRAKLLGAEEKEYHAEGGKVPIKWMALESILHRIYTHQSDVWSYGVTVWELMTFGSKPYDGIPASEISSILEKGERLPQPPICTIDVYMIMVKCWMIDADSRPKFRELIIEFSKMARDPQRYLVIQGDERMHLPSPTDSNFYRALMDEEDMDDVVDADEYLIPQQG
Kind of assay: HTRF-based EGFR biochemical assay. How it is done: Constructs spanning residues 696-1022 of the human EGFR (including wild type and L858R, L858R/T790M, T790M, and T790M/V948R mutant sequences) were prepared in a GST-fusion format using the pTriEX system (Novagen) for expression in Sf9 insect cells essentially as described (Yun et al., PNAS 105, 2070-2075 (2008); Yun et al., Cancer Cell 11, 217-227 (2007)). EGFR kinase proteins were purified by glutathione-affinity chromatography followed by size-exclusion chromatography after cleavage with TEV or thrombin to remove the GST fusion partner following established procedures. (Yun 2008; Yun 2007).
EGFR biochemical assays were carried out using a homogeneous time-resolved fluorescence (HTRF) assay as described previously. The reaction mixtures contained 1 μM biotin-Lck-peptide substrate, wild type or mutant EGFR enzyme in reaction buffer (50 mM HEPES pH 7. 1, 10 mM MgCl2, 0.01% BSA, 1 mM TCEP and 0.1 mM Na3VO4) at a final volume of 10 μL. Enzyme concentrations were adjusted to accommodate varying kinase activity and ATP concentrations (0.2-0.4 nM L858R/T790M; or 2-4 nM L858R, or 2-4 nM T790M, or nM WT). All reactions were carried out at room temperature in white ProxiPlate™ 384-well Plus plates (PerkinElmer) and were quenched with 5 μL of 0.2 M EDTA at 60 min. Five μL per well of the detection reagent containing 2.5 ng PT66K (Cis-bio) and 0.05 μg SAXL (Prozyme) were added, and the plates were then incubated at room temperature for 1 hour and read with an EnVision plate reader.
On the technique in general: TR-FRET usually uses a lanthanide donor and a delayed reading to cut background.

Assay [2] has as its target T2, EGFR T790M/L858R Ba/F3 cell line (Homo sapiens, UniProt P00533, T790M/L858R, cells depend on it).
T2 construct: The constructs were shuttled into the retroviral vector JP1540 using the BD Creator™ System (BD Biosciences)
Briefly: Ba/F3 cell proliferation (MTS assay), EGFR T790M/L858R. Type of assay: cell-based, murine. How it is done:
The EGFR mutant L858R, Del E746_A750, L858R/T790M, DelE746_A750/T790M, L858R/T790M/C797S and Del/T790M/C797S Ba/F3 cells were previously described (Zhou e al., Nature 462, (2009), 1070-1074). All cell lines were maintained in RPMI 1640 (Cellgro; Mediatech Inc., Hemdon, Calif.) supplemented with 10% FBS 100 units/mL penicillin, 100 units/mL streptomycin, and 2 mM glutamine. L858R cells were maintained in ACL-4 media (Invitrogen, Carlsbad, Calif.) supplemented with 5% FBS, 100 units/mL penicillin, 100 units/mL streptonycin, and 2 mM glutamine. The EGFR I941R mutation was introduced via site directed mutagenesis using the Quick Change Site-Directed Mutagenesis kit (Stratagene; La Jolla, Calif.) according to the manufacturer's instructions. All constructs were confirmed by DNA sequencing. The constructs were shuttled into the retroviral vector JP1540 using the BD Creator™ System (BD Biosciences). Ba/F3 cells were infected with retrovirus and according to standard protocols, as described previously (Zhou 2009). Stable clones were obtained by selection in puromycin (2 μg/ml).
Growth and inhibition of growth was assessed by MTS assay and was performed according to previously established methods (Zhou 2009). The MTS assay is a colorimetric method for determining the number of viable cells that is based on the bioreduction of MTS by cells to a formazan product that is soluble in cell culture medium and can be detected spectrophotometrically. […] All experimental points were set up in six wells and all experiments were repeated at least three times. […] The curves were fitted using a non-linear regression model with a sigmoidal dose response.
A general note: Tetrazolium assays rely on reduction of a dye to a coloured formazan, in cell work by metabolically active cells.

Where [3] appears, read: absence of cetuximab, read-out: Ba/F3 cellular activity (EC50) T790M/L858R.
Setting [4] is: read-out: Ba/F3 cellular activity (EC50) T790M/L858R + Cetuximab, presence of 1 μg/mL cetuximab.

pEC50, pIC50: −log10 of the molar value. Where two headings read alike, the source gives them in different places.

T2 sequence (P00533 whole entry T790M/L858R): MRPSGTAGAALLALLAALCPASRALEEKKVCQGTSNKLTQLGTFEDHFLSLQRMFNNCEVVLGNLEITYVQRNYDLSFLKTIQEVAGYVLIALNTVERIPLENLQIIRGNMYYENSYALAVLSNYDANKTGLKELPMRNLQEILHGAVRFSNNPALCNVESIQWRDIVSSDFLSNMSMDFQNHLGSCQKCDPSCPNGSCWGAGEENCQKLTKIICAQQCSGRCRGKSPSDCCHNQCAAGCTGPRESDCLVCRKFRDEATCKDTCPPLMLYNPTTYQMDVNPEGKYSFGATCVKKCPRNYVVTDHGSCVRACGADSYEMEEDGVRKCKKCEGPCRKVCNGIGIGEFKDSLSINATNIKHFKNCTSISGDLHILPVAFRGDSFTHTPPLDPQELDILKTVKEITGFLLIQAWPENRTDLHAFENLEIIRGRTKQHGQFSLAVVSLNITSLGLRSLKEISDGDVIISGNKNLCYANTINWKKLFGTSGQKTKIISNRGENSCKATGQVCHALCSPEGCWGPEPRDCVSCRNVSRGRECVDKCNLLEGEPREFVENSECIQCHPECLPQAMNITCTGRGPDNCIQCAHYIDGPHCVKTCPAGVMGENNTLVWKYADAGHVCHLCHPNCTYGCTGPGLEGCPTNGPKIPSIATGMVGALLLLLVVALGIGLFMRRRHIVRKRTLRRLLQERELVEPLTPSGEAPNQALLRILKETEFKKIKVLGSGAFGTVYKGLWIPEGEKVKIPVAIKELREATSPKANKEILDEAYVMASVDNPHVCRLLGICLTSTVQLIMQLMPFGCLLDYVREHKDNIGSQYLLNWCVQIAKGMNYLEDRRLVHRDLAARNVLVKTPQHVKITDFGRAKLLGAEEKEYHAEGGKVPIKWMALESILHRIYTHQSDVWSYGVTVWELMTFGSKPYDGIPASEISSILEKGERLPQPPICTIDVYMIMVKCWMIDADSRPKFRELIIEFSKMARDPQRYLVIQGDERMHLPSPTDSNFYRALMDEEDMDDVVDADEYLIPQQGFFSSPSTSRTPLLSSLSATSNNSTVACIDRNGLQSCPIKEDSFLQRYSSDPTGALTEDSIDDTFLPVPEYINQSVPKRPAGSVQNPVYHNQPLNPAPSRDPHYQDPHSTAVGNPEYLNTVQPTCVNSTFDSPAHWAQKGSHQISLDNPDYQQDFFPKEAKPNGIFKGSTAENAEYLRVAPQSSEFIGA

`C=CC(=O)Nc1ccc2c(c1)N(Cc1ccccc1)C(=O)c1cc(-c3ccc4[nH]ccc4c3)ccc1N2` [I-1]: in assay [1], the pIC50 was at most 6.12. The pEC50 in assay [2] (setting [3]) is at most 6.12; in assay [2] (setting [4]), 6.12 to 6.30.

In the case of `O=C(CCl)Nc1ccc2c(c1)N(Cc1ccccc1)C(=O)c1cc(-c3ccc4[nH]ccc4c3)ccc1N2` [I-2], the pIC50 in assay [1] is at most 6.12. Further, the pEC50 in assay [2] (setting [3]) and in assay [2] (setting [4]) was over 6.60 each time.

On to `C=CC(=O)Nc1ccc2c(c1)N(Cc1ccccc1)C(=O)c1cc(-c3ccc(N4CCNCC4)cc3)ccc1N2` [I-3, N-(10-Benzyl-11-oxo-2-(4-(piperazin-1-yl)phenyl)-10,11-dihydro-5H-dibenzo[b,e][1,4]diazepin-8-yl)acrylamide], for which the pIC50 in assay [1] is at most 6.12. Further, the pEC50 in assay [2] (setting [3]) and in assay [2] (setting [4]) was at most 6.12 in each case.

`O=C1c2cc(Br)ccc2Nc2ccc(F)cc2N1Cc1ccccc1` [I-a, 10-Benzyl-2-bromo-8-fluoro-5,10-dihydro-11H-dibenzo[b,e][1,4]diazepin-11-one]: the pEC50 was at most 6.12 in assay [2] (setting [3]) and 6.30 to 6.60 in assay [2] (setting [4]).
